Laboratory results reported in US12492188B2, “1H-benzo[D]imidazole derivatives as TLR9 inhibitors for the treatment of fibrosis” (BRISTOL-MYERS SQUIBB COMPANY, priority 2020, dated 2025).
Like-named read-outs stand apart in the source and are kept apart here.

Columns and labels:
Assay type in all cases: cell-based
[1] = target: T1, human TLR9 (Homo sapiens, UniProt Q9NR96); assay: TLR9 inhibition reporter assay (HEK-Blue cells, secreted embryonic alkaline phosphatase reporter)
T1 construct: host or cells: HEK-Blue cells (HEK293-derived reporter line)
T1 sequence (Q9NR96 26-1032): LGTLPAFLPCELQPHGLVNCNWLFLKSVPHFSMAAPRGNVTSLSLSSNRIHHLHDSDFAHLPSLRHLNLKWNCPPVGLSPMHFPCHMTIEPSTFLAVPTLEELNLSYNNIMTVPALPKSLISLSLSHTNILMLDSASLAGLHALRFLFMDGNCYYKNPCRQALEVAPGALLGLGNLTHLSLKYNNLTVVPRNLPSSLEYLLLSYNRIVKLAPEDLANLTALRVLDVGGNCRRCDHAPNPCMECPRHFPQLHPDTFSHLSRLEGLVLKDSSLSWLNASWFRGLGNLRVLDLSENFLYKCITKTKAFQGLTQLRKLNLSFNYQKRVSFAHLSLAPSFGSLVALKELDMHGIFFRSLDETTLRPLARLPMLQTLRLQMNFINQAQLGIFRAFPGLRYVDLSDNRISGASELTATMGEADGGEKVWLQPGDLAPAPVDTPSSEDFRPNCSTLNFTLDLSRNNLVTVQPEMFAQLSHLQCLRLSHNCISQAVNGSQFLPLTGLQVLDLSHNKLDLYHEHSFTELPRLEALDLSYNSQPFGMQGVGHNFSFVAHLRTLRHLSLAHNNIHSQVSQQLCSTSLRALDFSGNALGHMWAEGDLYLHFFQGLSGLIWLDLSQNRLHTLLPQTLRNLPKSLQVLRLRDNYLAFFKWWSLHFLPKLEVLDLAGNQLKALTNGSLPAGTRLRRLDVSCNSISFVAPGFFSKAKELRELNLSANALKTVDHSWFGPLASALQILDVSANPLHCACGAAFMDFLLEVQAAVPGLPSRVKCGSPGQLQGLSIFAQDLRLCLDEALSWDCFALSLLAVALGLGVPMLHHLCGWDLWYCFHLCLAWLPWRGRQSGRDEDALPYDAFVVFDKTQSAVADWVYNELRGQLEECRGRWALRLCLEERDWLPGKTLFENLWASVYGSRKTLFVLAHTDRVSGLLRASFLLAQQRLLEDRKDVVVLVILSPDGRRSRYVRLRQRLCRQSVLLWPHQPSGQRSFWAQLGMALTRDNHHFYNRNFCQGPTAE
Method in brief: (§1)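 Cells seeded at 15000 (TLR7), 20,000 (TLR8) or 25,000 (TLR9) per well; compound 0.05 nM–50 μM, 30 min RT pre-incubation. Agonists: gardiquimod 7.5 μM, R848 15.9 μM, ODN2006 5 nM respectively. 22 h, 37 °C; SEAP via HEK-Blue Detection; % inhibition vs agonist+DMSO and known-inhibitor wells.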

[2] = target: T2, human TLR7 (Homo sapiens, UniProt Q9NYK1); assay: TLR7 inhibition reporter assay (HEK-Blue cells, secreted embryonic alkaline phosphatase reporter); conditions: HEK-Blue cells overexpressing human TLR7, stimulated with gardiquimod 7.5 μM; read-out: TLR 7 IC50
T2 construct: host or cells: HEK-Blue cells (HEK293-derived reporter line)
T2 sequence (Q9NYK1 27-1049): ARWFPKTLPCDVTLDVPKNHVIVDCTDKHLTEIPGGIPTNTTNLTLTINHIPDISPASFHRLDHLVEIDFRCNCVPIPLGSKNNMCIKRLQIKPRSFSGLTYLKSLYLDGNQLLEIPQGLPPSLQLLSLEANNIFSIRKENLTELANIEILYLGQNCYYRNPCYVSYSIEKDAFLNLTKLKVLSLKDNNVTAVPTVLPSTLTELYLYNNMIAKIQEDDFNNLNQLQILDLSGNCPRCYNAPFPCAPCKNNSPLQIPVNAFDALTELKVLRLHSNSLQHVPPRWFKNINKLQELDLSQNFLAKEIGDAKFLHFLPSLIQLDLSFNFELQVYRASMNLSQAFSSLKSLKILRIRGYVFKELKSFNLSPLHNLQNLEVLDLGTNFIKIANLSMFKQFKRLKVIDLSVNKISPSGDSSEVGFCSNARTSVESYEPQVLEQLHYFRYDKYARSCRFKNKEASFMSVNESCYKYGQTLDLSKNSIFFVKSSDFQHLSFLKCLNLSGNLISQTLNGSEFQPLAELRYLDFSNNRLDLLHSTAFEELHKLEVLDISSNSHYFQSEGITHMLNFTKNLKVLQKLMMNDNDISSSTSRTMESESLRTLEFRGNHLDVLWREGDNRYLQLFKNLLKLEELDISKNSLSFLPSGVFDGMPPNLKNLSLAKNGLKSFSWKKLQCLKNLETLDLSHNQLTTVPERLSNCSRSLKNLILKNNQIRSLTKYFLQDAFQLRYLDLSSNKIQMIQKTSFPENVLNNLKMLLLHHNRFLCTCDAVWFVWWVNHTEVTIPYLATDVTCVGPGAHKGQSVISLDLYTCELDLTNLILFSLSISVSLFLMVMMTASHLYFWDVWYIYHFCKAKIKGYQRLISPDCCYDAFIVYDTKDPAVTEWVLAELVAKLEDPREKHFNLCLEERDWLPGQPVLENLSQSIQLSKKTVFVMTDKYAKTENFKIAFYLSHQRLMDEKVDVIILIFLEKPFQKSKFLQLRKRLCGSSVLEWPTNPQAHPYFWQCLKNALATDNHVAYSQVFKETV
Method in brief: as §1

[3] = target: T3, human TLR8 (Homo sapiens, UniProt Q9NR97); assay: TLR8 inhibition reporter assay (HEK-Blue cells, secreted embryonic alkaline phosphatase reporter); conditions: HEK-Blue cells overexpressing human TLR8, stimulated with R848 15.9 μM; read-out: TLR 8 IC50
T3 construct: host or cells: HEK-Blue cells (HEK293-derived reporter line)
T3 sequence (Q9NR97 27-1041): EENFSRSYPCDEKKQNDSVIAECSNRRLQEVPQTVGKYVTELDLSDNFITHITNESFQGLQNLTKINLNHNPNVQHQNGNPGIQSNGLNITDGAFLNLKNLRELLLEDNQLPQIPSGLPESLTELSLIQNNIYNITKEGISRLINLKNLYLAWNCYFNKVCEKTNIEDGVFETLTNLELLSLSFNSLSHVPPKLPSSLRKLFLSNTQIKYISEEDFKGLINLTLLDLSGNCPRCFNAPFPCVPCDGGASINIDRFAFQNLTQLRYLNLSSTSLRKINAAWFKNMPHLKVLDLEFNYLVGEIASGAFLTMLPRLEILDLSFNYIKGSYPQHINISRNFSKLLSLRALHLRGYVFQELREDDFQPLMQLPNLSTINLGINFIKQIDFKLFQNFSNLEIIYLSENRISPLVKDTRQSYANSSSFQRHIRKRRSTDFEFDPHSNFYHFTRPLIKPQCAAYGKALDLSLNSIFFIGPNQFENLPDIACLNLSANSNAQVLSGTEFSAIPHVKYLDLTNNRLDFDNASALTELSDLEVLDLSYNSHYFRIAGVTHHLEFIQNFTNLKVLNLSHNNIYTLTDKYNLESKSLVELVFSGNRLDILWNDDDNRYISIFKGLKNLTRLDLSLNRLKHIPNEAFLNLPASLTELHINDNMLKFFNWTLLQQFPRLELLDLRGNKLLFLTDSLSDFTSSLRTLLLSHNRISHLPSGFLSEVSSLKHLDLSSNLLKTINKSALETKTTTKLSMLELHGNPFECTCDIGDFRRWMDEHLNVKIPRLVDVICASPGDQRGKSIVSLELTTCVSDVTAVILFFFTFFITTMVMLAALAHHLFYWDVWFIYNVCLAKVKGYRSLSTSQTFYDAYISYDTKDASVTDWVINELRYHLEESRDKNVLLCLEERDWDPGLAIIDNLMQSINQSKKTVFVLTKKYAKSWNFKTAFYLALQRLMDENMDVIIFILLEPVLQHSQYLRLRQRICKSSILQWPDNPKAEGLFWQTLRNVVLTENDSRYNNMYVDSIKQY
Method in brief: as §1

[4] = HEK-Blue cells overexpressing human TLR9, stimulated with ODN2006 5 nM, read-out: TLR 9 IC50
[5] = HEK-Blue human TLR9 reporter cells

**Q.** Which results are given for `Cn1c(-c2ccc(S(C)(=O)=O)cc2)nc2c(F)cc(C3CCN(C4CC5CCC(C4)N5CC4CC4)CC3)cc21` (single isomer, unassigned) [Example 283, 6-(1-(8-(cyclopropylmethyl)-8-azabicyclo[3.2.1]octan-3-yl)piperidin-4-yl)-4-fluoro-1-methyl-2-(4-(methylsulfonyl)phenyl)-1H-benzo[d]imidazole]?
**A.** IC50 [1, 4]: 16 nM; IC50 [1, 5]: 16 nM; IC50 [2]: 4700 nM; IC50 [3]: > 50000 nM

**Q.** Which IC50 [1, 4] does the source give for `Cn1c(-c2ccc(S(C)(=O)=O)cc2)nc2c(F)cc(C3CCN(C4CC5CCC(C4)N5C4CCOCC4)CC3)cc21` (single isomer, unassigned) [Example 288, 4-fluoro-1-methyl-2-(4-(methylsulfonyl)phenyl)-6-(1-(8-(tetrahydro-2H-pyran-4-yl)-8-azabicyclo[3.2.1]octan-3-yl)piperidin-4-yl)-1H-benzo[d]imidazole] here?
**A.** 105 nM

**Q.** What about the IC50 [1, 5] of the same compound?
**A.** 110 nM

**Q.** What about the IC50 [2] of the same compound?
**A.** 31700 nM

**Q.** What about the IC50 [3] of the same compound?
**A.** > 50000 nM

**Q.** Which results are given for `Cn1c(-c2ccc(S(C)(=O)=O)cc2)nc2c(F)cc(C3CCN(C4CC5CCC(C4)N5C4CCOCC4)CC3)cc21` (single isomer, unassigned) [Example 289, 4-fluoro-1-methyl-2-(4-(methylsulfonyl)phenyl)-6-(1-(8-(tetrahydro-2H-pyran-4-yl)-8-azabicyclo[3.2.1]octan-3-yl)piperidin-4-yl)-1H-benzo[d]imidazole]?
**A.** IC50 [1, 4]: 29 nM; IC50 [1, 5]: 29 nM; IC50 [2]: 3200 nM; IC50 [3]: > 50000 nM

**Q.** `COCCN1C2CCC1CC(N1CCC(c3cc(F)c4nc(-c5ccc(S(C)(=O)=O)cc5)n(C)c4c3)CC1)C2` (single isomer, unassigned) [Example 290, 4-fluoro-6-(1-(8-(2-methoxyethyl)-8-azabicyclo[3.2.1]octan-3-yl)piperidin-4-yl)-1-methyl-2-(4-(methylsulfonyl)phenyl)-1H-benzo[d]imidazole] was tested. Which IC50 [1, 4] did it give?
**A.** 144 nM

**Q.** What about the IC50 [1, 5] of the same compound?
**A.** 150 nM

**Q.** And the IC50 [2]?
**A.** 22200 nM

**Q.** What about the IC50 [3] of the same compound?
**A.** > 50000 nM

**Q.** Which IC50 [1, 4] does the source give for `COCCN1C2CCC1CC(N1CCC(c3cc(F)c4nc(-c5ccc(S(C)(=O)=O)cc5)n(C)c4c3)CC1)C2` (single isomer, unassigned) [Example 291, 4-fluoro-6-(1-(8-(2-methoxyethyl)-8-azabicyclo[3.2.1]octan-3-yl)piperidin-4-yl)-1-methyl-2-(4-(methylsulfonyl)phenyl)-1H-benzo[d]imidazole] here?
**A.** 57 nM

**Q.** And the IC50 [1, 5]?
**A.** 57 nM

**Q.** What about the IC50 [2] of the same compound?
**A.** 1800 nM

**Q.** What about the IC50 [3] of the same compound?
**A.** 34800 nM

**Q.** `Cn1c(-c2ccc(S(C)(=O)=O)cc2)nc2c(F)cc(C3CCN(C4CC5CCC(C4)N5C4CCC4)CC3)cc21` (single isomer, unassigned) [Example 292, 6-(1-(8-cyclobutyl-8-azabicyclo[3.2.1]octan-3-yl)piperidin-4-yl)-4-fluoro-1-methyl-2-(4-(methylsulfonyl)phenyl)-1H-benzo[d]imidazole] was tested. Which IC50 [1, 4] did it give?
**A.** 147 nM

**Q.** What about the IC50 [1, 5] of the same compound?
**A.** 150 nM

**Q.** What about the IC50 [2] of the same compound?
**A.** 21700 nM

**Q.** And the IC50 [3]?
**A.** > 50000 nM

**Q.** With `Cn1c(-c2ccc(S(C)(=O)=O)cc2)nc2c(F)cc(C3CCN(C4CC5CCC(C4)N5C4CCC4)CC3)cc21` (single isomer, unassigned) [Example 293, 6-(1-(8-cyclobutyl-8-azabicyclo[3.2.1]octan-3-yl)piperidin-4-yl)-4-fluoro-1-methyl-2-(4-(methylsulfonyl)phenyl)-1H-benzo[d]imidazole] as the compound, how does the IC50 [1, 4] read?
**A.** 11 nM

**Q.** And the IC50 [1, 5]?
**A.** 11 nM

**Q.** What about the IC50 [2] of the same compound?
**A.** 8200 nM

**Q.** And the IC50 [3]?
**A.** 44200 nM

**Q.** What does the source list for `CC(C)N1CCCC(N2CCC(c3cc(F)c4nc(-c5ccc(S(C)(=O)=O)cc5)n(C)c4c3)CC2)CC1` (single isomer, unassigned) [Example 294, 4-fluoro-6-(1-(1-isopropylazepan-4-yl)piperidin-4-yl)-1-methyl-2-(4-(methylsulfonyl)phenyl)-1H-benzo[d]imidazole]?
**A.** IC50 [1, 4]: 55 nM; IC50 [1, 5]: 55 nM; IC50 [2]: 2300 nM; IC50 [3]: > 50000 nM

**Q.** With `CC(C)N1CCCC(N2CCC(c3cc(F)c4nc(-c5ccc(S(C)(=O)=O)cc5)n(C)c4c3)CC2)CC1` (single isomer, unassigned) [Example 295, 4-fluoro-6-(1-(1-isopropylazepan-4-yl)piperidin-4-yl)-1-methyl-2-(4-(methylsulfonyl)phenyl)-1H-benzo[d]imidazole] as the compound, how does the IC50 [1, 4] read?
**A.** 24 nM

**Q.** And the IC50 [1, 5]?
**A.** 24 nM

**Q.** And the IC50 [2]?
**A.** 700 nM

**Q.** And the IC50 [3]?
**A.** > 50000 nM

**Q.** What does the source list for `Cn1c(-c2ccc(S(C)(=O)=O)cc2)nc2c(F)cc(C3CCN(C4CCCN(CC5CC5)CC4)CC3)cc21` (single isomer, unassigned) [Example 298, 6-(1-(1-(cyclopropylmethyl)azepan-4-yl)piperidin-4-yl)-4-fluoro-1-methyl-2-(4-(methylsulfonyl)phenyl)-1H-benzo[d]imidazole]?
**A.** IC50 [1, 4]: 58 nM; IC50 [1, 5]: 58 nM; IC50 [2]: 3000 nM; IC50 [3]: > 50000 nM
